IC50 and Ki data for 21 molecules are collected here from ChEMBL document CHEMBL1909046, “DrugMatrix in vitro pharmacology data”.

In data set [1] the target is T1, Alpha-1A adrenergic receptor (Rattus norvegicus, UniProt P43140).
T1 sequence (P43140 whole entry): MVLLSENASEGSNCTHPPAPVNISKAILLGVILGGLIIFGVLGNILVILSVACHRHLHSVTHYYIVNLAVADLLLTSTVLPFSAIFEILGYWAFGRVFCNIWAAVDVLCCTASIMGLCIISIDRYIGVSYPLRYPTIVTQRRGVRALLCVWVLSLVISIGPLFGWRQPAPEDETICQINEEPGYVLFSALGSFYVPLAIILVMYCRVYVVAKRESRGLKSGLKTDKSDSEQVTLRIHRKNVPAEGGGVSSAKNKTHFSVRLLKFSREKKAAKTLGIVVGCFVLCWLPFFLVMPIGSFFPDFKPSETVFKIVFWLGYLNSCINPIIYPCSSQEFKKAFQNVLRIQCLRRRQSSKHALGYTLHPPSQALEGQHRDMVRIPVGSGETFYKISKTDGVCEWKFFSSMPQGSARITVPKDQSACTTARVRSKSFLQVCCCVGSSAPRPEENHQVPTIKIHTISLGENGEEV
Nature of the data set: DRUGMATRIX: Alpha-1A adrenergic receptor radioligand binding (ligand: prazosin). Type of data set: cell membranes, Wistar, Submaxillary gland, Membrane. The settings on record: Not Active = under 50% inhibition at 10 µM.

In data set [2] the target is Adenosine receptor A2a (Homo sapiens, UniProt P29274). Briefly: DRUGMATRIX: Adenosine A2A radioligand binding (ligand: […]). Format: cell membranes, HEK293, Membrane. The settings on record: Not Active = under 50% inhibition at 10 µM; for Ki: read-out: Ki.
Data set [3] addresses Matrix metalloproteinase-9 (Homo sapiens, UniProt P14780). Briefly: biochemical. Format: cell-based.
A short description of data set [4]: DRUGMATRIX: GABAA, Muscimol, Central radioligand binding (ligand: [3H] Muscimol). Format: cell membranes, Rattus norvegicus, Wistar, Brain, Membrane. The settings on record: Not Active = under 50% inhibition at 10 µM.
The target of data set [5] is C-C chemokine receptor type 2 (Homo sapiens, UniProt P41597). Type of data set: cell membranes, CHO-K1, Membrane. The settings on record: cho-k1. Note: in other assays of this panel Not Active means under 50% inhibition at 10 µM.
Data set [6] addresses Cytochrome P450 2C9 (Homo sapiens, UniProt P11712). The settings on record: bti-tn-5b1-4.

As a reminder, the IC50 is the midpoint of a concentration-inhibition curve. By Ki is commonly meant a measure of affinity in units of concentration, obtained from inhibition or displacement.

Chain of C-C chemokine receptor type 2 (P41597 whole entry): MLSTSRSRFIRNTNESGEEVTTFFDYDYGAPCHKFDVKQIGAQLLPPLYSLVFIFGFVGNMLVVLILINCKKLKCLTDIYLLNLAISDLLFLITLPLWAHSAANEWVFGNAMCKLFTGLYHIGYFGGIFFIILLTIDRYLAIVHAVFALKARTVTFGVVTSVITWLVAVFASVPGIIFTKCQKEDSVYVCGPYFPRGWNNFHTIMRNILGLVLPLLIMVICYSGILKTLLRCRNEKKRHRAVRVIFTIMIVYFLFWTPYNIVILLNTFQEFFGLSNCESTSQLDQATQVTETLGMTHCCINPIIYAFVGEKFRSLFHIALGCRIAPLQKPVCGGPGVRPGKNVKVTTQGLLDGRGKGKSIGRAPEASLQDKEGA
Chain of Matrix metalloproteinase-9 (P14780 whole entry): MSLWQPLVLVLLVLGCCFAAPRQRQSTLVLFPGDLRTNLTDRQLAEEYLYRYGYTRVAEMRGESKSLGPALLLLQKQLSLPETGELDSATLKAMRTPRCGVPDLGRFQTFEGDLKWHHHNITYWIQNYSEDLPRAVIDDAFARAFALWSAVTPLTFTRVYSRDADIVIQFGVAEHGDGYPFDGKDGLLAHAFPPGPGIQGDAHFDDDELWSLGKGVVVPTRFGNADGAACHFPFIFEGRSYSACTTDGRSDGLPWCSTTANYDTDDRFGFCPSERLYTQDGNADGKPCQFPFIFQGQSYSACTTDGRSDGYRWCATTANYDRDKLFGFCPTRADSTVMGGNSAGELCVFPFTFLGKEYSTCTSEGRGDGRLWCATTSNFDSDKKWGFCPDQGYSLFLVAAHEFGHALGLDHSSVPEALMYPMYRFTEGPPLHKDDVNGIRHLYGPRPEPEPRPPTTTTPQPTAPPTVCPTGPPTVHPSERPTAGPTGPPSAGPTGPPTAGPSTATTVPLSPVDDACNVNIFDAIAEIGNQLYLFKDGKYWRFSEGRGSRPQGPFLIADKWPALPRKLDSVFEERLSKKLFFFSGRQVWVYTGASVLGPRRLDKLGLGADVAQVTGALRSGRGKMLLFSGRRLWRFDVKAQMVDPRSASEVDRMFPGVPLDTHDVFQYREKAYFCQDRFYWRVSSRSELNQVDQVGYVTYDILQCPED
Chain of Cytochrome P450 2C9 (P11712 whole entry): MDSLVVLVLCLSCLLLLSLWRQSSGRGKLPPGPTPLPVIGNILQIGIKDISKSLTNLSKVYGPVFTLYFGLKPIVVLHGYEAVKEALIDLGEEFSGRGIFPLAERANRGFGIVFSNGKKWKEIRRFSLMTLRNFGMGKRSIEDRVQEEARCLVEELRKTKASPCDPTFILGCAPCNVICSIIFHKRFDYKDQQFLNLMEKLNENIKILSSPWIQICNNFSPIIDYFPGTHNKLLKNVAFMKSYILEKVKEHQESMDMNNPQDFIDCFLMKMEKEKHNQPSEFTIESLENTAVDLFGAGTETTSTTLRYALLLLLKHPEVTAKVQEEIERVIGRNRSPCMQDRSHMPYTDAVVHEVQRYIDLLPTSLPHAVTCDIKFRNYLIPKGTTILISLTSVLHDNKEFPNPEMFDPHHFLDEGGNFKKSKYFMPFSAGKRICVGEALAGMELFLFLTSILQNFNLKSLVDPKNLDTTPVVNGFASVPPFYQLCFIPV
Chain of Adenosine receptor A2a (P29274 whole entry): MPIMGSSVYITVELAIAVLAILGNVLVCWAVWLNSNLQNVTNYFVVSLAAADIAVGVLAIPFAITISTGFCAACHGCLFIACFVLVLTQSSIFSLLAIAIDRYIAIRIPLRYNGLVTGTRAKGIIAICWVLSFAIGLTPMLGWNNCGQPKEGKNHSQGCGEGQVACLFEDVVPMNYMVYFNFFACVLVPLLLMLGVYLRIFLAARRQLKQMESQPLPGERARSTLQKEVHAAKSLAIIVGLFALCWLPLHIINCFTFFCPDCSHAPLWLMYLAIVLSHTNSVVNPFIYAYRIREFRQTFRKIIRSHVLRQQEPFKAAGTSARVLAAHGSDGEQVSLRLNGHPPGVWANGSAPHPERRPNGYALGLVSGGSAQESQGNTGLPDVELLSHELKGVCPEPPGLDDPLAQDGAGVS

Take `COc1ccccc1C(=O)N1CCC(Cc2ccccc2)CC1`: the IC50 result in data set [1], in data set [2] (hek293), in data set [3], in data set [4] and in data set [5] was “Not Active” throughout. In addition, in data set [4], the Ki entry is listed as “Not Active”.

As to `Cc1ccccc1C(=O)N1CCC(Cc2ccccc2)CC1`, the IC50 result in data set [1], in data set [2] (hek293), in data set [3], in data set [4] and in data set [5] was “Not Active” in each case. Besides, in data set [4], the Ki result is recorded as “Not Active”.

Regarding `O=C1CC[C@H](N2C(=O)c3ccccc3C2=O)C(=O)N1`, the IC50 entry in data set [6], in data set [1], in data set [2] (hek293), in data set [3], in data set [4] and in data set [5] was “Not Active” each time. In addition, the Ki entry in data set [6] and in data set [4] was “Not Active” in each case.

Regarding `N=C(Nc1ccccc1)Nc1ccccc1`, the IC50 result in data set [6], in data set [1], in data set [2] (hek293), in data set [3], in data set [4] and in data set [5] was “Not Active” in each case. The Ki result in data set [6] and in data set [4] was “Not Active” in each case.

`CCCC(=O)Nc1ccc(OCC(O)CNC(C)C)c(C(C)=O)c1` (stereo not drawn) [ACEBUTOLOL]: the IC50 result in data set [1], in data set [2] (hek293), in data set [3], in data set [4] and in data set [5] was “Not Active” throughout. The Ki result in data set [4] was “Not Active”.

With `Cc1cc(=O)n(-c2ccccc2)n1C` [ANTIPYRINE], the half-inhibitory concentration (IC50) result in data set [1], in data set [2] (hek293), in data set [3], in data set [4] and in data set [5] was “Not Active” each time. In addition, in data set [4], the Ki result was “Not Active”.

As to `O=C1CC2(CCCC2)CC(=O)N1CCCCN1CCN(c2ncccn2)CC1` [BUSPIRONE], the IC50 entry in data set [6], in data set [2] (hek293), in data set [3], in data set [4] and in data set [5] was “Not Active” in each case. The Ki result in data set [6] and in data set [4] was “Not Active” each time.

Take `O=NN(CCCl)C(=O)NCCCl` [CARMUSTINE]: the IC50 entry in data set [1], in data set [2] (hek293), in data set [3], in data set [4] and in data set [5] was “Not Active” each time. Also, the Ki result in data set [4] is on record as “Not Active”.

Consider `CC1=C(C(=O)O)N2C(=O)[C@@H](NC(=O)[C@H](N)c3ccccc3)[C@H]2SC1` [CEPHALEXIN ANHYDROUS], for which the IC50 result in data set [1], in data set [2] (hek293), in data set [3], in data set [4] and in data set [5] was “Not Active” throughout. The inhibitory constant (Ki) entry in data set [4] was “Not Active”.

`O=C(N[C@H](CO)[C@H](O)c1ccc([N+](=O)[O-])cc1)C(Cl)Cl` [CHLORAMPHENICOL]: the IC50 result in data set [1], in data set [2] (hek293), in data set [3], in data set [4] and in data set [5] was “Not Active” in each case. Moreover, in data set [4], the Ki entry is listed as “Not Active”.

For `CCOC(=O)C(C)(C)Oc1ccc(Cl)cc1` [CLOFIBRATE], the half-maximal inhibitory concentration (IC50) result in data set [1], in data set [2] (hek293), in data set [3], in data set [4] and in data set [5] was “Not Active” each time. Also, the Ki entry in data set [4] is reported as “Not Active”.

On to `C[C@@H]1C[C@@H]([C@H](O)CC2CC(=O)NC(=O)C2)C(=O)[C@@H](C)C1` [CYCLOHEXIMIDE], for which the IC50 result in data set [1], in data set [2] (hek293), in data set [3], in data set [4] and in data set [5] was “Not Active” each time. Besides, the Ki result in data set [4] is “Not Active”.

Take `C/C=C/C[C@@H](C)[C@@H](O)[C@H]1C(=O)N[C@@H](CC)C(=O)N(C)CC(=O)N(C)[C@@H](CC(C)C)C(=O)N[C@@H](C(C)C)C(=O)N(C)[C@@H](CC(C)C)C(=O)N[C@@H](C)C(=O)N[C@H](C)C(=O)N(C)[C@@H](CC(C)C)C(=O)N(C)[C@@H](CC(C)C)C(=O)N(C)[C@@H](C(C)C)C(=O)N1C` [CYCLOSPORINE]: the IC50 entry in data set [1], in data set [2] (hek293), in data set [3], in data set [4] and in data set [5] was “Not Active” throughout. Besides, the Ki entry in data set [4] is “Not Active”.

In the case of `CN(C)/N=N/c1[nH]cnc1C(N)=O` [DACARBAZINE], the IC50 entry is “Not Active” in data set [1]; “Not Active” in data set [2] (hek293); 556 nM in data set [3] (read-out: IC50); “Not Active” in data set [4]; “Not Active” in data set [5]. Besides, in data set [4], the Ki result was “Not Active”.

With `CN(C)c1ccc(C(=C2C=CC(=[N+](C)C)C=C2)c2ccc(N(C)C)cc2)cc1.[Cl-]` [GENTIAN VIOLET], the IC50 entry in data set [1] was “Not Active”; in data set [2] (read-out: IC50) it was 3370 nM; in data set [3] it was “Not Active”; in data set [4], “Not Active”; in data set [5], “Not Active”. The Ki is 1890 nM in data set [2] and “Not Active” in data set [4].

`NC(=O)NO` [HYDROXYUREA]: the IC50 entry in data set [1], in data set [2] (hek293), in data set [3], in data set [4] and in data set [5] was “Not Active” each time. For the same molecule, in data set [4], the Ki result is on record as “Not Active”.

For the molecule `Oc1ccc(OCc2ccccc2)cc1` [MONOBENZONE], the IC50 result in data set [1], in data set [2] (hek293), in data set [3], in data set [4] and in data set [5] was “Not Active” in each case. The Ki result in data set [4] is “Not Active”.

Turning to `COc1ccc2cc([C@H](C)C(=O)O)ccc2c1` [NAPROXEN], the IC50 entry in data set [1], in data set [2] (hek293), in data set [3], in data set [4] and in data set [5] was “Not Active” each time. For the same molecule, the Ki result in data set [4] is on record as “Not Active”.

`COC(=O)C1=C(C)NC(C)=C(C(=O)OCC(C)C)C1c1ccccc1[N+](=O)[O-]` (stereo not drawn) [NISOLDIPINE]: the IC50 result was “Not Active” in data set [1]; 4060 nM in data set [2] (read-out: IC50); “Not Active” in data set [3]; “Not Active” in data set [4]; “Not Active” in data set [5]. Further, the Ki in data set [2] was 2280 nM; in data set [4], “Not Active”.

For the molecule `CCOC(=O)C1=C(C)NC(C)=C(C(=O)OC)C1c1cccc([N+](=O)[O-])c1` (stereo not drawn) [NITRENDIPINE], the IC50 result in data set [1], in data set [2] (hek293), in data set [3], in data set [4] and in data set [5] was “Not Active” throughout. Besides, the inhibitory constant (Ki) entry in data set [4] is listed as “Not Active”.

Regarding `CCn1cc(C(=O)O)c(=O)c2cc(F)c(N3CCN(C)CC3)cc21` [PEFLOXACIN], the IC50 result in data set [1], in data set [2] (hek293), in data set [3], in data set [4] and in data set [5] was “Not Active” each time. Besides, the inhibition constant Ki entry in data set [4] was “Not Active”.
